ChEMBL document CHEMBL5346977, “Discovery of Novel d-(+)-Biotin-Conjugated Resorcinol Dibenzyl Ether-Based PD-L1 Inhibitors for Targeted Cancer Immunotherapy” (J Med Chem, 2023)
The source made the active and inactive calls. The calls are words filed in the database; no cut-off is given here.

Columns and labels:
[1] = target: Programmed cell death 1 ligand 1 (Homo sapiens, UniProt Q9NZQ7); assay: Binding affinity to human PD-L1 assessed as dissociation constant by SPR analysis
HepG2 = assay: Antitumor immunity activity against human HepG2 cells expressing human PD-L1 co-cultured with human Jurkat T cells expressing human PD-1 assessed as reduction in cell viability incubated for 48 hrs by CCK8 assay; format: functional, cell-based; details: dose 1.1-10 µM
[2] = AUC (0 to infinity) in Sprague-Dawley rat at 1 mg/kg, iv administered as single dose and measured after 48 hrs by HPLC-MS/MS analysis; format: ADME, organism-based; design: dose 1 mg/kg, time 48 hrs, route iv; details: in vivo
[3] = MRT (0 to t) in Sprague-Dawley rat at 1 mg/kg, iv administered as single dose and measured after 48 hrs by HPLC-MS/MS analysis; format: ADME, organism-based; details: in vivo
[4] = MRT (0 to infinity) in Sprague-Dawley rat at 1 mg/kg, iv administered as single dose and measured after 48 hrs by HPLC-MS/MS analysis; format: ADME, organism-based; details: in vivo
[5] = AUC (0 to t) in Sprague-Dawley rat at 20 mg/kg, po measured after 48 hrs by HPLC-MS/MS analysis; format: ADME, organism-based; design: dose 20 mg/kg, time 48 hrs, route po; details: in vivo
[6] = MRT (0 to t) in Sprague-Dawley rat at 20 mg/kg, po measured after 48 hrs by HPLC-MS/MS analysis; format: ADME, organism-based; details: in vivo
[7] = MRT (0 to infinity) in Sprague-Dawley rat at 20 mg/kg, po measured after 48 hrs by HPLC-MS/MS analysis; format: ADME, organism-based; details: in vivo
[8] = AUC (0 to infinity) in C57BL/6 mouse at 50 mg/kg, ip measured after 4 hrs by HPLC-MS/MS analysis; format: ADME, organism-based; design: dose 50 mg/kg, time 4 hrs, route ip; details: in vivo
[9] = MRT (0 to t) in C57BL/6 mouse at 50 mg/kg, ip measured after 4 hrs by HPLC-MS/MS analysis; format: ADME, organism-based; details: in vivo
[10] = Cmax in C57BL/6 mouse at 50 mg/kg, ip measured after 4 hrs by HPLC-MS/MS analysis; format: ADME, organism-based; design: dose 50 mg/kg, time 4 hrs, route ip; details: in vivo
[11] = Toxicity in […] with mouse B16-F10 cells assessed as effect on body weight at 50 mg/kg, ip administered once daily for 14 days; format: organism-based; details: in vivo, 336 h, time 14 day
B16-F10 [12] = assay: Antitumor activity against mouse B16-F10 cells implanted in syngeneic C57BL/6 mouse assessed as inhibition of tumor growth at 50 mg/kg, ip measured after 12 days; format: functional, organism-based; details: time 12.0 day
B16-F10 [13] = assay: Antitumor activity against mouse B16-F10 cells implanted in syngeneic C57BL/6 mouse assessed as decrease in tumor weight at 50 mg/kg, ip measured after 12 days relative to control; format: functional; design: scale not given: the % may be the effect or the level left; details: time 12 day
B16-F10 [14] = assay: Antitumor activity against mouse B16-F10 cells implanted in syngeneic C57BL/6 mouse assessed as decrease in tumor volume at 50 mg/kg, ip measured after 12 days relative to control; format: functional; design: scale not given: the % may be the effect or the level left; details: time 12 day
[15] = Drug concentration in liver of C57BL/6 mouse implanted with mouse B16-F10 cells at 50 mg/kg, ip measured after 0.5 hrs by UPLC-MS/MS analysis; format: ADME, organism-based; details: read-out: Ct
[16] = Drug concentration in lung of C57BL/6 mouse implanted with mouse B16-F10 cells at 50 mg/kg, ip measured after 0.5 hrs by UPLC-MS/MS analysis; format: ADME, organism-based; details: read-out: Ct
[17] = Drug concentration in kidney of C57BL/6 mouse implanted with mouse B16-F10 cells at 50 mg/kg, ip measured after 0.5 hrs by UPLC-MS/MS analysis; format: ADME, organism-based; details: read-out: Ct
[18] = Drug concentration in tumor of C57BL/6 mouse implanted with mouse B16-F10 cells at 50 mg/kg, ip measured after 0.5 hrs by UPLC-MS/MS analysis; format: ADME, organism-based, Neoplasm; details: read-out: Ct
[19] = Drug concentration in heart of C57BL/6 mouse implanted with mouse B16-F10 cells at 50 mg/kg, ip measured after 1 hrs by UPLC-MS/MS analysis; format: ADME, organism-based; details: read-out: Ct
[20] = Drug concentration in lung of C57BL/6 mouse implanted with mouse B16-F10 cells at 50 mg/kg, ip measured after 1 hrs by UPLC-MS/MS analysis; format: ADME, organism-based; details: read-out: Ct
[21] = Drug concentration in kidney of C57BL/6 mouse implanted with mouse B16-F10 cells at 50 mg/kg, ip measured after 1 hrs by UPLC-MS/MS analysis; format: ADME, organism-based; details: read-out: Ct
[22] = Drug concentration in brain of C57BL/6 mouse implanted with mouse B16-F10 cells at 50 mg/kg, ip measured after 1 hrs by UPLC-MS/MS analysis; format: ADME, organism-based; details: read-out: Ct
[23] = Drug concentration in plasma of C57BL/6 mouse implanted with mouse B16-F10 cells at 50 mg/kg, ip measured after 1 hrs by UPLC-MS/MS analysis; format: ADME, organism-based
[24] = Drug concentration in spleen of C57BL/6 mouse implanted with mouse B16-F10 cells at 50 mg/kg, ip measured after 2 hrs by UPLC-MS/MS analysis; format: ADME, organism-based; details: read-out: Ct
[25] = Drug concentration in lung of C57BL/6 mouse implanted with mouse B16-F10 cells at 50 mg/kg, ip measured after 2 hrs by UPLC-MS/MS analysis; format: ADME, organism-based; details: read-out: Ct
[26] = Drug concentration in kidney of C57BL/6 mouse implanted with mouse B16-F10 cells at 50 mg/kg, ip measured after 2 hrs by UPLC-MS/MS analysis; format: ADME, organism-based; details: read-out: Ct
[27] = Drug concentration in brain of C57BL/6 mouse implanted with mouse B16-F10 cells at 50 mg/kg, ip measured after 2 hrs by UPLC-MS/MS analysis; format: ADME, organism-based; details: read-out: Ct
[28] = Drug concentration in lung of C57BL/6 mouse implanted with mouse B16-F10 cells at 50 mg/kg, ip measured after 4 hrs by UPLC-MS/MS analysis; format: ADME, organism-based; details: read-out: Ct
[29] = Drug concentration in kidney of C57BL/6 mouse implanted with mouse B16-F10 cells at 50 mg/kg, ip measured after 4 hrs by UPLC-MS/MS analysis; format: ADME, organism-based; details: read-out: Ct
[30] = Drug concentration in tumor of C57BL/6 mouse implanted with mouse B16-F10 cells at 50 mg/kg, ip measured after 4 hrs by UPLC-MS/MS analysis; format: ADME, organism-based, Neoplasm; details: read-out: Ct
[31] = Drug concentration in brain of C57BL/6 mouse implanted with mouse B16-F10 cells at 50 mg/kg, ip measured after 4 hrs by UPLC-MS/MS analysis; format: ADME, organism-based; details: read-out: Ct
[32] = Drug concentration in plasma of C57BL/6 mouse implanted with mouse B16-F10 cells at 50 mg/kg, ip measured after 4 hrs by UPLC-MS/MS analysis; format: ADME, organism-based
B16-F10 [33] = assay: Antitumor immunity against mouse B16-F10 cells implanted in allogenic BALB/c mouse assessed as increase in CD3+ T cells at 50 mg/kg, ip by flow cytometric analysis (reference value: 2.51%); format: functional
B16-F10 [34] = assay: Antitumor activity against mouse B16-F10 cells implanted in allogenic BALB/c mouse assessed as decrease in PD-L1 mRNA level at 50 mg/kg, ip by qPCR analysis; format: functional, organism-based
[35] = Toxicity in allogenic BALB/c mouse implanted with mouse B16-F10 cells assessed as inflammatory cell infiltration in colon at 50 mg/kg, ip by H&E staining based analysis; format: organism-based; details: in vivo

Programmed cell death 1 ligand 1, sequence (Q9NZQ7 whole entry): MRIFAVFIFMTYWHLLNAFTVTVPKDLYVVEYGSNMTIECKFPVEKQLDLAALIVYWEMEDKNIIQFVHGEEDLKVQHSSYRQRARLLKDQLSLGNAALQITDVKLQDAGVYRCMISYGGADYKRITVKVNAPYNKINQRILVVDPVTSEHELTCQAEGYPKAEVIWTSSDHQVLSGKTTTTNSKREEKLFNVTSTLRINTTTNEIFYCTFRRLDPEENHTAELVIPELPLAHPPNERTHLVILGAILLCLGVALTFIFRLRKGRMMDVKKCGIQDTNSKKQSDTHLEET

## Cc1c(COc2cc(OCc3cccc(C#N)c3)c(CN3CCCCC3C(=O)NCCNC(=O)CCCC[C@@H]3SC[C@@H]4NC(=O)N[C@@H]43)cc2Cl)cccc1-c1ccccc1 (stereo partly specified)
[1]
  Kd: 0.0437 µM
HepG2
  Activity: Dose-Dependent Effect
[2]
  AUC: 0.832 µg·h/mL
[3]
  MRT last at 48 h: 11.6 h
[4]
  MRT inf: 19.9 h
[5]
  AUCt: 1.16 µg·h/mL
[6]
  MRT last at 48 h: 6.9 h
[7]
  MRT inf: 7.1 h
[8]
  AUC: 14501.641 µg/L/h
[9]
  MRT last at 4 h: 2.24 h
[10]
  Cmax: 1.54 µg/mL
[11]
  Activity: Non-Toxic
B16-F10 [12]
  Activity: Active
B16-F10 [13]
  Activity: 39.1%
B16-F10 [14]
  Activity: 52.6%
[15]
  concentration at 0.5 h: 1.97 µg/mL
[16]
  concentration at 0.5 h: 0.285 µg/mL
[17]
  concentration at 0.5 h: 0.134 µg/mL
[18]
  concentration at 0.5 h: 0.0155 µg/mL
[19]
  concentration at 1 h: 0.0159 µg/mL
[20]
  concentration at 1 h: 0.193 µg/mL
[21]
  concentration at 1 h: 0.219 µg/mL
[22]
  concentration at 1 h: 0.003 µg/mL
[23]
  concentration at 1 h: 1.46 µg/mL
[24]
  concentration at 2 h: 7.18 µg/mL
[25]
  concentration at 2 h: 0.0949 µg/mL
[26]
  concentration at 2 h: 0.208 µg/mL
[27]
  concentration at 2 h: 0.0042 µg/mL
[28]
  concentration at 4 h: 0.143 µg/mL
[29]
  concentration at 4 h: 0.38 µg/mL
[30]
  concentration at 4 h: 0.0942 µg/mL
[31]
  concentration at 4 h: 0.0046 µg/mL
[32]
  concentration at 4 h: 1.46 µg/mL
B16-F10 [33]
  Activity: 24.9%
B16-F10 [34]
  Activity: Active
[35]
  Activity: Non-Toxic
